Results taken from patent publication US7235584B2, “Non-psychotropic cannabinoids” (Pharmos Corporation, priority 2000, dated 2007).
Where two headings read alike, the source gives them in different places.

Legend:
NMDA receptor = test: [3H]MK-801 displacement radioligand binding, rat forebrain membranes
Description: The identification of possible recognition sites for PRS-211 analogs was carried out by measuring the ability of these PRS-211 analogs to inhibit the binding of MK-801 to rat forebrain membranes.
Brains were removed from Sprague-Dawley rats no more than 5 min after decapitation. Membrane preparations were isolated according to a procedure described previously (Eshhar et al., Brain Res. 476:57, 1989). Prior to radioligand binding measurements, endogenous glutamate present in membranes was removed from the preparation by subjecting the membranes to 3–4 successive washings in 10 mM Tris HCl pH 7.2, performed at 4° C.
The specific binding of the new analogs to NMDA receptors was determined by their ability to displace [^3H]MK-801 from NMDA receptor in rat forebrain preparations. Specifically, rat-forebrain membranes (0.1 mg) were incubated for 2 hours at room temperature with 10 nM of tritiated MK-801 and with the PRS-211 compounds at 3 doses each. Non-specific binding was determined by the use of 0.1 mM MK-801. Following the incubation, bound radioligand was separated from unbound by filtration through GF/B filters. The filters were counted in a β-counter and log of analog concentrations versus % of [^3H]MK-801 specific binding was plotted. The IC50 was calculated from this plot.
Binding of [^3H]MK-801 to membranes was carried out in the presence of 30 μM glycine and 10 μM L-glutamate. Membranes (250 μg protein) were resuspended in 50 mM tris-acetate pH 7.4 buffer and incubated with 10 nM [^3H]MK-801, either alone or in the presence of PRS-211 compounds at 0.1–100 μM concentrations for three hours at room temperature (RT). Reaction buffers used in the different radioligand binding studies contained 10% of an ethanol/Emulphor 620/deionized water mixture. The ratio (by volume) of the respective components in the mixture was 20/3/57. This mixture is required for solubilizing PRS-211 compounds at concentrations above 30 μM. Reaction volume was 1 ml. Non-specific [^3H]MK-801 binding was determined in the presence of 100 μM unlabeled MK-801.
Concentration dependence of certain PRS-211 analogs on inhibition of [^3H]MK-801 binding is illustrated in FIG. 1.

TNFα = test: Inhibition of TNFα in LPS-activated macrophage cell cultures (ELISA); format: cell-based
Description: Specific aspects of the inflammatory response cascade are mediated by the cytokine TNFα. Inhibition of TNFα production and/or inhibition of TNFα release by the new analogs are assayed in macrophage cell cultures activated with LPS. This serves as another indication of the general anti-inflammatory potential of the novel compounds.
The method for macrophage cell culture growth is identical to the one described in PGE2 assay. Aliquots of the supernatants collected following stimulation with LPS were quantitated for TNFα by enzyme linked immunosorbent assay (ELISA) using HRP conjugated to anti-TNFα antibodies and […] for the colorimetric reaction. The peroxidase catalyzed color reaction was stopped by acidification and the absorbance at 450 nm is measured. The absorbance at this wavelength is proportional to the concentration of TNFα in the sample determined from a standard curve plotting the concentrations of TNFα standards versus their absorbance.

[1] = test system: T1, nitric oxide synthase (NOS); test: Inhibition of nitric oxide synthase, fluorimetric nitrite assay in LPS-stimulated macrophage supernatants; format: cell-based; details: macrophage cell cultures
T1 construct: endogenous in cells
Description: As one aspect of the anti-oxidative potential of the novel analogs they were tested for their ability to inhibit the enzyme nitric oxide synthase (NOS). This assay can also serve as another indication of the anti-inflammatory cascade, as well as the anti-oxidative mechanisms.
The final products of NOS are Nitrite (NO2) and Nitrate (NO3). The in vitro fluorimetric assay provides an accurate method for the measurement of the Nitrite, which is the majority of NO products. The principle of the fluorimetric assay is based on the addition of DAN (2,3-diaminonaphthalene) to the aliquots of the supernatants collected from macrophage cell cultures incubated with the new analogs and stimulated with LPS. Following, NaOH was added to convert Nitrite to a fluorescent compound 1(H)-naphthtriazole. The fluorescence was measured immediately in a fluorimeter using excitation wavelength of 365 nm and an emission wavelength of 450 nm.

transient MCAo in rats = test: Transient middle cerebral artery occlusion (MCAo), infarct size evaluation; format: in vivo; details: transient MCAo
Text: The middle cerebral artery is the cerebral blood vessel most susceptible to stroke in humans. In animals, coagulation, permanent ligation or permanent placement of an occluding thread ink the artery produces a permanent focal stroke affecting the MCA territory. Transient ligation or occlusion results in transient focal stroke. Both transient and permanent focal strokes result in varying degrees of edema and infarction in the affected brain regions. The ability of compounds to reduce the volumes of edema and infarction is considered a measure of their potential as anti-stroke treatment.
• a. Male rats (8/treatment group) 320–380 gr. (Harlan Israel). • b. Halothane (Rhone Poulenc France) • c. Pentobarbitone (Pental Veterinary, CTS Israel). • d. Poly-L-Lysine (Sigma, USA). • e. Silk suture material 3-0 and 4-0. • f. Nylon (Polyamid) suture material 3-0. Four cm pieces were cut and positioned in a solution of 1% Poly-L-Lysine for 1 minute and dried in an oven (60 ° C.) for 60 minutes. The tip of each piece was rounded under a flame. • g. Saline (Teva Medical). • h. Blank cremophor ethanol cosolvent (Pharmos). • i. Dexanabinol in cremophor ethanol cosolvent 50 mg/ml. (Both Dexanabinol and its vehicle were diluted in saline prior to drug administration. • j. Analogs PRS-211,092, PRS-211,095, PRS-211,128 PRS-211,132 and PRS-211,220 in cremophor ethanol cosolvent, 50 mg/ml. • k. The analogs were diluted in saline prior to drug administration. Methods Transient MCAo
a. Surgical details of the MCAO method used for testing dexanabinol analogs, are presented in Belayev, et al., (Belayev, Busto, Weizhao, and Ginsberg, Stroke 26:2313–2319, 1995) which is incorporated herein in its entirety by reference.
b. Two hours after the start of MCAo, the animals were reanesthetized with halothane, the neck wound was re-opened and the nylon thread pulled out of the Internal carotid artery (ICA). The skin wound was then closed with 3-0 silk suture material and the animals allowed to recover from the anesthesia.
c. Three sets of animals were tested. In the first test immediately (2+0 hours) before thread removal the animals were injected IV with either analogs PRS 211,095, PRS 211,128, PRS 211,132, or Dexanabinol (PRS 211,007) each at a dosage of 5 mg/kg. One group of animals was treated with 5mi/kg vehicle alone. In another group, the animals subjected to “sham” operation, the suture was passed into the ICA, as described above, but immediately withdrawn. […] Laser Doppler Flow (LDF) determined the success of MCAo—a drop of more then 50% in cerebral blood flow was considered as a sign of successful MCAO. […]
A detailed investigation of neurological performance was carried out on the first, third and the 7th day after the MCAo. […] Animals were scored according to their performance: […]

tail flick model in mice = test: Tail flick model: analgesic effect and tolerance to morphine; format: in vivo, ICR male mice
Text: A mice model of acute pain, the tail flick model, was used to test the ability of compounds to prolong the analgesic activity of opioids, by preventing the development of tolerance, and their ability to reverse established tolerance.
The following animal model of acute pain was used to assess the potential analgesic effects of test compounds either alone or in combination with morphine. […] In this model the nociceptive stimulus is thermal and the latency time till the animal flicks its tail is monitored (Le Bars D., Gozariu M. & Cadden S. W., Pharmacol. Rev. 53: 597–652, 2001).
Hyperalgesia to radiant heat was assessed as follows. ICR male mice (20–30 g average body weight, Harlan, Israel) were injected with test compounds i.p. at the volume dose of 5 ml/kg. Each treatment group contained at least 6 animals. The test compounds were dissolved in Cremophor®:ethanol (70:30 weight/weight) and diluted 1:20 in saline prior to injection. Morphine HCl was directly dissolved in saline. Its vehicle was also included as control. Pain threshold was determined 30 minutes post-administration by measuring the foot-withdrawal latency defined as the time from the onset of radiant heat to foot withdrawal. The cut-off time was preset to 10 seconds in order to prevent tissue damage. […] Test compounds (5 mg/kg) and vehicle (5 ml/kg) were administered 15 minutes before morphine and pain threshold was determined 30 minutes after the first injection of morphine on day 1, 5, 8 and 10. […] Pain threshold was determined on day 1 and 10.
In each type of study, the animals were tested on given days 30 minutes after morphine injection in the tail flick apparatus (Socrel, model DS 20). Animals were gently held while their tails were located above the photoelectric cell. The tails were then illuminated (21V) at 2 cm from the distal tip and the latency time, measured in seconds, was recorded in duplicates. The results are expressed either as absolute latency time or as percent of animals that enjoyed significant analgesia as measured by the fact that their latency time is at least twice the latency time for vehicle treated animals. At the end of the study, the animals were euthanized by i.p. injection of 100 mg/kg sodium pentobarbitone.
The differences between the latency times among various treatment groups was analyzed by analysis of variance (ANOVA) followed by post-hoc Duncan test. The differences between the % of animals showing analgesia among various treatment groups was analyzed by analysis of variance (ANOVA) followed by post-hoc Fisher exact test. A value of p<0.05 is considered to be statistically significant.

[2] = displacement of [3H]MK-801, rat forebrain membranes, read-out: NMDA BINDING IC50

T1 sequence (P35228 whole entry): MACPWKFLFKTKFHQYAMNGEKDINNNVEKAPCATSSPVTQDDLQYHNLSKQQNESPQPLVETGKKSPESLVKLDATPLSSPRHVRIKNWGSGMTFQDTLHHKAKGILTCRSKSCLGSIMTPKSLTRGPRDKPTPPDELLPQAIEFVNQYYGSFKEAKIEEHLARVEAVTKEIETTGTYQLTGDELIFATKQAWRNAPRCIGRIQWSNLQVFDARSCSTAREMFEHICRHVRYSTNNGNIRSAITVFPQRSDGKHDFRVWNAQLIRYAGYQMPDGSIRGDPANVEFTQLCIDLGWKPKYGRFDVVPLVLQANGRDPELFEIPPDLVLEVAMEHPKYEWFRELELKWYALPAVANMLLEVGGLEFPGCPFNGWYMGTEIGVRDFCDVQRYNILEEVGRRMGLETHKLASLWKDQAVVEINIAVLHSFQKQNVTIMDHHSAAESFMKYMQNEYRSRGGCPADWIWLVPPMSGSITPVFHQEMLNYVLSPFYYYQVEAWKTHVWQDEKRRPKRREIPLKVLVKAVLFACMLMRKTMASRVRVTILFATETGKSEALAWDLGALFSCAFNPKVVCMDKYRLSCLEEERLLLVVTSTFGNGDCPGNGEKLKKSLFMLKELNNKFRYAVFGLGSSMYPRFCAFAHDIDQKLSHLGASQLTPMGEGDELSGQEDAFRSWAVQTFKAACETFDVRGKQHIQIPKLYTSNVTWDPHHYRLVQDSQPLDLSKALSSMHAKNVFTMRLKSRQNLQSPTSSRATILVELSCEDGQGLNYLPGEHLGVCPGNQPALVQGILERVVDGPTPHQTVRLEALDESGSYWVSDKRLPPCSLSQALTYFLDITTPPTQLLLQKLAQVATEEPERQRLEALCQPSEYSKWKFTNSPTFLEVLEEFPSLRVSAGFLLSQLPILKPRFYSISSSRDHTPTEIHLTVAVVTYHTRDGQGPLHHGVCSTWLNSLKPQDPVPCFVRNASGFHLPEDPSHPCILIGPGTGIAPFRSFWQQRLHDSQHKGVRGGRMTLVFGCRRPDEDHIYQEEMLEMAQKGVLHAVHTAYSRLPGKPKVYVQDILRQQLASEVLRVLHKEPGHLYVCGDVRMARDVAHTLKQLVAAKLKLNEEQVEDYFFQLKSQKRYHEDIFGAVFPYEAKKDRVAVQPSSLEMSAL

Row | Compound | IC50 (NMDA receptor; [2]) [µM] | inhibition at 10 µM [1] [%] | other results
1 | CCCCCCC(C)(C)c1cc(O)c2c(c1)OC(C)(C)[C@H]1CC=C(CN3CCC(C)CC3)CC21 (single isomer, unassigned; (+)) [211,251-000] | > 100 | 37 | NMDA receptor binding / affinity (in words) (NMDA receptor): do not exhibit substantial NMDA receptor binding; inhibition at 10 µM (TNFα): 0%
2 | CCCCCCC(C)(C)c1cc(O)c2c(c1)OC(C)(C)[C@H]1CC=C(CN3CCC(N4CCCCC4)CC3)CC21 (single isomer, unassigned; (+)) [211,257-000] | > 100 | 39 | NMDA receptor binding / affinity (in words) (NMDA receptor): do not exhibit substantial NMDA receptor binding; inhibition at 10 µM (TNFα): 10%
3 | CCCCCCC(C)(C)c1cc(O)c2c(c1)OC(C)(C)[C@H]1CC=C(CC#N)C[C@H]21 [211,006-000] | – | 19 | –
4 | CCCCCCC(C)(C)c1cc(O)c2c(c1)OC(C)(C)[C@H]1CC=C(C[S+](C)[O-])C[C@H]21 (stereo partly drawn) [211,041-000] | – | 72 | –
5 | CCCCCCC(C)(C)c1cc(O)c2c(c1)OC(C)(C)[C@H]1CC=C(Cc3ccccc3)C[C@H]21 [211,119-000] | – | 0 | –
6 | CCCCCCC(C)(C)c1cc(O)c2c(c1)OC(C)(C)[C@H]1CC=C(CN3CCCC3)C[C@H]21 [211,128-000] | > 20 | 27 | NMDA receptor binding / affinity (in words) (NMDA receptor): no detectable affinity; IC50 (NMDA receptor; rat forebrain membranes, read-out: mean IC50 of [3H]MK-801 binding (FIG. 2)): > 20 µM; function, reduction of mortality and brain morphometry (transient MCAo in rats): inactive
7 | CCCCCCC(C)(C)c1cc(O)c2c(c1)OC(C)(C)[C@H]1CC=C(CN3CCOCC3)C[C@H]21 [211,132-000] | – | 40 | –
8 | CCCCCCC(C)(C)c1cc(O)c2c(c1)OC(C)(C)[C@H]1CC=C(CN3CCNCC3)CC21 (stereo partly drawn) [211,133-000] | > 100 | – | –
9 | CCCCCCC(C)(C)c1cc(O)c2c(c1)OC(C)(C)[C@H]1CC=C(CN3CCNC(C)C3)CC21 (stereo partly drawn) [211,134-000] | > 100 | – | –
10 | CCCCCCC(C)(C)c1cc(O)c2c(c1)OC(C)(C)[C@H]1CC=C(CN3CC=CCC3)C[C@H]21 [211,145-000] | – | 60 | –
11 | CCCCCCC(C)(C)c1cc(O)c2c(c1)OC(C)(C)[C@H]1CC=C(CN3CCCCC3)C[C@H]21 [211,159-000] | > 20 | 27 | –
12 | CCCCCCC(C)(C)c1cc(O)c2c(c1)OC(C)(C)[C@H]1CC=C(CN3CCN=C3SC)C[C@H]21 [211,204-000] | – | 85 | –
13 | CCCCCCC(C)(C)c1cc(O)c2c(c1)OC(C)(C)[C@H]1CC=C(COCC(O)CO)C[C@H]21 (stereo partly drawn) [211,211-000] | – | 0 | –
14 | CCCCCCC(C)(C)c1cc(O)c2c(c1)OC(C)(C)[C@H]1CC=C(CN3CC=CC3)C[C@H]21 [211,212-000] | – | 0 | –
15 | COc1ccc2c(c1)[C@]13CCCC[C@@H]1[C@H](C2)N(C)CC3 [dextromethorphan, reference compound] | – | – | reversal of established tolerance to morphine (tail flick model in mice; in combination with morphine from day 11, tested day 12, 15, 17, PRS-211,220 5 mg/kg, dextromethorphan 20 mg/kg): statistically undistinguishable from morphine alone
16 | CN1CC[C@]23c4c5ccc(O)c4O[C@H]2[C@@H](O)C=C[C@H]3[C@H]1C5 [morphine, reference compound] | – | – | latency time (tail flick model in mice; 5 mg/kg, plain analgesic study, 30 minutes post-administration): 7.5 s
